{
  "source": "patent US8981091B2",
  "about": "“Pest control composition” (Sumitomo Chemical Company, Limited, priority 2011, dated 2015)",
  "type_in_all_cases": "in vivo",
  "key": {"[1]": {"system": "Bemisia tabaci", "test": "Test Example 3: spray on cabbage seedlings carrying Bemisia tabaci, insect death rate", "conditions": "2 days after treatment", "method": "Cabbages (Green ball) were planted (one plant per container) in plastic containers (volume: 90 ml) and grown until the third to fourth leaf stage. Only one leaf of each cabbage plant was left on the plant and all the other leaves were removed from the plant. The plastic containers were put into a net cage containing a lot of living Bemisia tabaci and allowed to stand for 24 hours. After that, the plastic containers were taken out from the cage and the number of living insects (Bemisia tabaci) on the cabbage seedlings was determined (This is called the “number of insects before treatment”).\n(§1) A suspension concentrate containing 10.0% by weight of etoxazole [product name: Baroque (registered trademark) flowable, manufactured by Kyoyu Agri Co., Ltd.] was diluted with water containing 0.02% by volume of a spreading agent [product name: Sindain (registered trademark), manufactured by Sumitomo Chemical Co., Ltd.] so that the concentration of etoxazole became 800 ppm.\nA reference standard containing 99.9% by weight of fenazaquin was diluted with water containing 0.02% by volume of a spreading agent [product name: Sindain (registered trademark), manufactured by Sumitomo Chemical Co., Ltd.] so that the concentration of fenazaquin became 50 ppm.\nThe water dilution of etoxazole, the water dilution of fenazaquin, and water containing 0.02% by volume of a spreading agent [product name: Sindain (registered trademark), manufactured by Sumitomo Chemical Co., Ltd.] were mixed to prepare a test solution with a predetermined concentration of etoxazole and/or fenazaquin.\nThen, each test solution was sprayed onto the plastic containers to sufficiently soak cabbage seedlings, and allowed to stand for room temperature (about 25° C.). Two days after the treatment, the number of living insects (Bemisia tabaci) on the cabbage seedlings was determined (This is called the “number of insects after treatment”).\nAn insect death rate was calculated according to the following equation. For each treatment there are duplicates. […]"}, "[2]": {"system": "Tetranychus urticae", "test": "Test Example 2: foliar spray on kidney bean leaves carrying Tetranychus urticae adults, insect death rate", "conditions": "etoxazole 0.8 ppm alone, 3 days after treatment", "method": "(§2) Kidney beans (Nagauzura saitou) were planted (one plant per container) in plastic containers (volume: 90 ml) and grown until the primary leaves had fully expanded. Only one leaf of each kidney bean plant was left on the plant and all the other leaves were removed from the plant. Then, 10 adults of Tetranychus urticae were released on each leaf.\nas §1, with “Ltd.] so that the concentration of etoxazole became 800 ppm.” left out\n(§3) A reference standard containing 99.9% by weight of fenazaquin was diluted with water containing 0.02% by volume of a spreading agent [product name: Sindain (registered trademark), manufactured by Sumitomo Chemical Co., Ltd.] so that the concentration of fenazaquin became 50 ppm. […]\nFour days after the release of the insects, each test solution was sprayed onto the leaves of kidney bean plants and the leaves were air-dried. […] An insect death rate was calculated according to the following equation. […]"}, "[3]": {"system": "Tetranychus urticae", "test": "Test Example 1: foliar spray on kidney bean leaves carrying Tetranychus urticae adults, insect death rate", "conditions": "etoxazole 0.000781 ppm alone, 2 days after treatment", "method": "as §2, with “5” for “10”\nas §1, with “Ltd.] so that the concentration of etoxazole became 800 ppm.” left out\nas §3\nThree days after the release of the insects, each test solution was sprayed onto the leaves of kidney bean plants and the leaves were air-dried. […] An insect death rate was calculated according to the following equation. […]"}},
  "data": [
    {"smiles": "CCOc1cc(C(C)(C)C)ccc1C1COC(c2c(F)cccc2F)=N1", "note": "(centres unmarked) [Etoxazole, 2-(2,6-difluorophenyl)-4-[4-(1,1-dimethylethyl)-2-ethoxyphenyl]-4,5-dihydrooxazole]", "values": [
      {"measurement": "Insect death rate (%)", "setting": "[1]; etoxazole 50 ppm alone", "value": 15, "unit": "%"},
      {"measurement": "Insect death rate (%)", "setting": "[1]; etoxazole 200 ppm alone", "value": 17, "unit": "%"},
      {"measurement": "Insect death rate (%)", "setting": "[1]; etoxazole 800 ppm alone", "value": 32, "unit": "%"},
      {"measurement": "Insect death rate (%)", "setting": "[2]", "value": 15, "unit": "%"},
      {"measurement": "Insect death rate (%)", "setting": "[3]", "value": 10, "unit": "%"}
    ]}
  ]
}
